What is called IC50 is the concentration at which inhibition is half-maximal.

Each structure is given as a SMILES string. Structures can show the parent of a compound that is named as a salt.

This test deals with M3 receptor (Homo sapiens (Human), UniProt P20309). The experiment in a line: FLIPR calcium flux assay, antagonist mode, CHO-K1 cells stably expressing M3 receptor. It counts as cell-based. The conditions noted are these: inhibition of acetylcholine-induced calcium flux (8 nM acetylcholine, EC80). As to the method: FLIPR assay was used to evaluate the potency of compounds. CHO-K1 cells stably expressing M3 receptor were cultured at 37° C. in the culture media (90% Ham's F-12 Nutrient Mixture, Gibco; 10% fetal bovine serum, Biosera; 200 μg/mL Hygromycin, and Penicillin (100 U/mL)/Streptomycin (100 μg/mL), Invitrogen) till 100% confluency in cell culture incubator (ThermoFisher, 5% CO2). Cells were harvested by using 0.25% Trypsin/EDTA, spun down at 300×g for 5 min, and resuspended in the culture media at cell density of 5×10^5 cells/mL. Twenty microliter of cell suspension (10,000 cells/well) was transferred to 384-well plate and cultured for 24 hr before assay. DMSO was used as blank control and scopolamine (MedChemExpress) as a positive control for antagonist. Compounds were prepared in DMSO (stock concentration: 1 mM) and 3×serially diluted (10 concentrations) in 384-LDV plate (Labcyte). Ninety nL of serially diluted compounds were transferred from 384-LDV plate into compound plate (PerkinElmer) by Echo 550 (Labcyte), and 30 uL assay buffer (1×HBSS with 20 mM HEPES, pH 7.4, Sigma) were added to each well. For FLIPR assay, culture media was removed and 20 uL of 1× loading dye (Assay buffer with 2 μM Fluo-8 AM, AAT Bioquest; 1 mM Probenecid and 0.0025% pluronic F-127, Sigma) was added to each well. The plate was incubated at 37° C. for 1 hr (avoid light exposure). For FLIPR assay, Excitation wavelength was set at 470/495 nm and Emission wavelength was set at 515/575 nm (Molecular Devices). Assay was performed in both agonist and antagonist modes. For agonist mode, 10 μL of diluted compounds were transferred to cell culture well and incubated at room temperature for 10 min. For antagonist mode, 10 μL diluted compounds with 8 nM acetylcholine (EC80, MedChemExpress) was added to each well, incubated at room temperature for 10 min. RFU value was calculated by subtracting minimum from maximum of FLIPR signal. Inhibitory effect of compounds on acetylcholine-induced calcium flux was calculated by % Effect=(RFUsample−RFUDMSO)/(RFUScopolamine−RFUDMSO)×100. Dose response curve fitting and IC50 value of each compound was calculated by using XLFit. The following table lists the IC50 where * means IC50>1000 nM; ** 10-100 nM; ***<10 nM.
Chain of M3 receptor (P20309 whole entry): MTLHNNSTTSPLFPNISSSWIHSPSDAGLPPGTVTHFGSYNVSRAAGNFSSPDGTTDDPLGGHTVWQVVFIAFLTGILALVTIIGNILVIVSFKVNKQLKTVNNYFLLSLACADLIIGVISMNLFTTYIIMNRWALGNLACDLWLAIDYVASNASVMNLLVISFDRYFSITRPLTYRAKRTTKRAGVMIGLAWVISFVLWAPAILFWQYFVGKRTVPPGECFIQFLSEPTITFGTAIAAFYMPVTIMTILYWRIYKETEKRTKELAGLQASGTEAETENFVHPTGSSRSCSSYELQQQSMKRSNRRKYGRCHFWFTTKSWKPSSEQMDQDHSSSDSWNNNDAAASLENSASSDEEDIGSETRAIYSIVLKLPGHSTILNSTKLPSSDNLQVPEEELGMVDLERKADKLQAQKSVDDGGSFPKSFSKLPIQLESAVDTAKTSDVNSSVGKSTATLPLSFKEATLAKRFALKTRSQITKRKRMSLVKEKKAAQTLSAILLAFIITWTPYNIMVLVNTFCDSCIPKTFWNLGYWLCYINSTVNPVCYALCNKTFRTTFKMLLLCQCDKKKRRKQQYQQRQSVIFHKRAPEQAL
In general terms: Calcium flux is commonly read through the fluorescence of an indicator in the cells.
`C[N+]1(C)CC[C@@H](OC(=O)C(O)c2ccccc2C2=CCCC2)C1` (single isomer, unassigned) [Example 2, trifluoroacetate]: the IC50 was less than 10 nM.

As for `C[N+]1(C)CC[C@@H](OC(=O)C(O)c2ccccc2C2=CCCC2)C1` (single isomer, unassigned) [Example 3, trifluoroacetate], the IC50 is 10 to 100 nM.

For `C[N+]1(C)CC[C@H](OC(=O)C(O)c2ccccc2C2=CCCC2)C1` (single isomer, unassigned) [Example 4, trifluoroacetate], the IC50 was in the range of 10 to 100 nM.

As to `C[N+]1(C)CC[C@H](OC(=O)C(O)c2ccccc2C2=CCCC2)C1` (single isomer, unassigned) [Example 5, trifluoroacetate], the IC50 fell in the range of 10 to 100 nM.

In the case of `C[N+]1(C)CCC[C@@H]1COC(=O)C(O)c1ccccc1C1=CCCC1` (single isomer, unassigned) [Example 6, trifluoroacetate], the IC50 is less than 10 nM.

As to `C[N+]1(C)CCC[C@H]1COC(=O)C(O)c1ccccc1C1=CCCC1` (single isomer, unassigned) [Example 8, trifluoroacetate], the IC50 lay within 10 to 100 nM.

Consider `C[N+]1(C)CCC[C@H]1COC(=O)C(O)c1ccccc1C1=CCCC1` (single isomer, unassigned) [Example 9, trifluoroacetate], for which the IC50 is less than 10 nM.

Turning to `C[N+]1(C)CC[C@@H](OC(=O)C(O)c2ccccc2-c2ncco2)C1` (stereo partly drawn) [Example 1, (3R)-3-(2-hydroxy-2-(2-(oxazol-2-yl)phenyl)acetoxy)-1,1-dimethylpyrrolidin-1-ium trifluoroacetate], the IC50 lay within 10 to 100 nM.

For the compound `C[N+]1(C)CCC[C@@H]1COC(=O)C(O)c1ccccc1C1=CCCC1` (stereo partly drawn) [Example 7, (R)-2-((2-(2-(cyclopent-1-en-1-yl)phenyl)-2-hydroxyacetoxy)methyl)-1,1-dimethylpyrrolidin-1-ium trifluoroacetate], the IC50 was in the range of 10 to 100 nM.

For `C[N+]1(C)CCC(OC(=O)C(O)c2ccccc2C2CCCC2)C1` (stereo not drawn) [Example 10, 3-[2-(2-Cyclopentyl-phenyl)-2-hydroxy-acetoxy]-1,1-dimethyl-pyrrolidinium chloride], the IC50 lay in the range of 10 to 100 nM.

As for `C[N+]1(C)CCC(OC(=O)C(O)c2ccccc2-c2ccccc2)C1` (stereo not drawn) [Example 11, 3-(2-([1,1′-biphenyl]-2-yl)-2-hydroxyacetoxy)-1,1-dimethylpyrrolidin-1-ium chloride], the IC50 was in the range of 10 to 100 nM.

On to `CC(C)c1ccccc1C(O)C(=O)OC1CC[N+](C)(C)C1` (stereo not drawn) [Example 12, 3-(2-hydroxy-2-(2-isopropylphenyl)acetoxy)-1,1-dimethylpyrrolidin-1-ium chloride], for which the IC50 was greater than 1000 nM.

Values taken from patent publication US20240002372A1, “ANTICHOLINERGIC AGENTS” (REZUBIO PHARMACEUTICALS CO., LTD, priority 2020, published 2024).
